Data published in patent US5220001A, “Anthracycline glycoside derivatives” (Zaidan Hojim Biseibutsu Dong-A Pharm Co., priority 1989, dated 1993).
Where a name gives a salt, the structure may show the parent alone. Read-outs that look alike come from different tables or passages of the source.

What was measured:
[1] = tested on: L1210 murine leukemia cells; assay: In vitro growth inhibition activity on L1210 murine leukemia cells (tetrazolium-based MTT colorimetric assay); assay type: cell-based; settings: Mus musculus
Description: In vitro growth inhibition activity of the compounds of present invention on L1210 murine leukemia cells was assessed by tetrazolium-based colorimetric assay described in Cancer Research Vol. 47, pp. 936-942, February 1987 with some modifications.
L1210 murine leukemia cells in exponential phase were plated at the density of 1×10^5 cells per well in 96-well microliter plates. The cell culture medium was RPMI 1640 (Roswell Park Memorial Institutes 1640) medium supplemented with 10% heat inactivated fetal bovine serum (FBS), 2mM L-glutamine, penicillin G sodium (100 units per ml of medium), and steptomycin sulfate (1 mg per ml of medium). The anthracycline compounds of present invention and doxorubicin hydrochloride were added to give final concentrations from 1 ng per ml to 300 ng per ml, while the control contained no drug.
The cells were incubated for 72 hours at 37.C. in an atmosphere of 10% CO2 and 90% air. At the end of drug exposure, 50 μl MTT(3-(4,5-dimethylthiazol-2-yl)-2,5-diphenyltetrazolium bromide) solution (2 mg per ml in phosphate-buffered saline) was added to each well and cultures were incubated at 37° C. for 4 hours in Co2 incubator. The MTT is reduced to water insoluble MTT formazan(1-(4,5-dimethylthiazol-2-yl)-3,5-diphenylformazan) by mitochondrial succinate dehydrogenase only in living cells. At the end of incubation, 200 μl of supernatant was removed and the MTT formazan crystal was dissolved by adding 200 μl dimethylsulfoxide with mixing them.
The plates were then read immediately at 540 nm on a scanning multiwell spectrophotometer (enzyme-linked immunosorbent assay reader; Biotech Instruments Inc., Burlington, VT). The absorbance value corrected against uninoculated blank values. The absorbance values are directly proportional to the cell numbers in living state. The IC 50 defined a 50% reduction of absorbance against untreated control were calculated from dose-response curve and are shown in Table 2.

L1210 murine leukemia = assay: In vivo antitumor activity on DCF1 mice bearing L1210 murine leukemia; settings: for T/C (%): i.p. days 1, 5, 9, mean survival time vs control, 60-day observation
Description: The in vivo antitumor activity of the compounds of present invention was studied on DCF1 mice bearing L1210 murine leukemia. Healthy female DCF1 mice were inoculated by intraperitoneal injection with 1×10^5 L1210 leukemia cells per animal. The inoculated mice were then treated intraperitoneally on the days 1, 5, 9 beginning on day 1, 24 hours after inoculation of the leukemia cells with various doses of test compounds. Doxorubicin hydrochloride was administered for comparison. All test compounds and doxorubicin hydrochloride were dissolved in filtered (0.22 μm) distilled water. […] The results are shown in Table 1 where T/C(%) values are determined by dividing the mean survival time of the treated mice by that of the control mice, the quotient so obtained being multiplied by 100. The survival time of the mice which survived more than 60 days after tumor inoculation was scored as 60 days. An increase on the T/C(%) indicates an increase in the antitumor activity of the compound.

[2] = L1210 cells, 72 hours, MTT, 50% reduction of absorbance against untreated control, read-out: IC50

COc1cccc2c1C(=O)c1c(O)c3c(c(O)c1C2=O)C[C@@](O)(C(=O)CO)C[C@@H]3O[C@H]1C[C@H](N)[C@H](O)[C@H](C)O1 [Doxorubicin hydrochloride, reference compound]
IC50 ([1]; L1210, 72 h): 0.0373 µg/mL | toxicity (decrease in T/C(%) at high dose) (L1210 murine leukemia; 16 mg/kg compared with 8 mg/kg): significant decrease in T/C(%) | T/C (%) (L1210 murine leukemia; dose 0.125 mg/kg): 141% | T/C (%) (L1210 murine leukemia; dose 0.250 mg/kg): 170% | T/C (%) (L1210 murine leukemia; dose 0.500 mg/kg): 218% | T/C (%) (L1210 murine leukemia; dose 1.000 mg/kg): 242% | T/C (%) (L1210 murine leukemia; dose 2.000 mg/kg): 242% | T/C (%) (L1210 murine leukemia; dose 4.000 mg/kg): 469% | T/C (%) (L1210 murine leukemia; dose 8.000 mg/kg): 303% | T/C (%) (L1210 murine leukemia; dose 16.000 mg/kg): 109%

COc1cccc2c1C(=O)c1c(O)c3c(c(O)c1C2=O)CC(O)(C(=O)COC(=O)CN)CC3OC1OC(C)C(O)C(O)C1F [Example 3, 7-0-(2,6-dideoxy-2-fluoro-α-L-talopyranosyl)adriamycinone 14-0-glycinate HCl salt]
IC50 [1, 2]: 0.0134 µg/mL | cure of tumored mice (L1210 murine leukemia; at 32 mg/kg, 16 mg/kg and 8 mg/kg i.p.): cured all tumored mice | T/C (%) (L1210 murine leukemia; dose 0.125 mg/kg): 186% | T/C (%) (L1210 murine leukemia; dose 0.250 mg/kg): 238% | T/C (%) (L1210 murine leukemia; dose 0.500 mg/kg): 328% | T/C (%) (L1210 murine leukemia; dose 1.000 mg/kg): 230% | T/C (%) (L1210 murine leukemia; dose 2.000 mg/kg): 255% | T/C (%) (L1210 murine leukemia; dose 4.000 mg/kg): 279% | T/C (%) (L1210 murine leukemia; dose 8.000 mg/kg): 727% | T/C (%) (L1210 murine leukemia; dose 16.000 mg/kg): 727% | T/C (%) (L1210 murine leukemia; dose 32.000 mg/kg): 727%

COc1cccc2c1C(=O)c1c(O)c3c(c(O)c1C2=O)CC(O)(C(=O)COC(=O)CCN)CC3OC1OC(C)C(O)C(O)C1F [Example 5, 7-0-(2,6-dideoxy-2-fluoro-α-L-talopyranosyl)adriamycinone 14-0-β-alaninate HCl salt]
IC50 [1, 2]: 0.0101 µg/mL | T/C (%) (L1210 murine leukemia; dose 0.125 mg/kg): 140% | T/C (%) (L1210 murine leukemia; dose 0.250 mg/kg): 162% | T/C (%) (L1210 murine leukemia; dose 0.500 mg/kg): 189% | T/C (%) (L1210 murine leukemia; dose 1.000 mg/kg): 248% | T/C (%) (L1210 murine leukemia; dose 2.000 mg/kg): 361% | T/C (%) (L1210 murine leukemia; dose 4.000 mg/kg): 333% | T/C (%) (L1210 murine leukemia; dose 8.000 mg/kg): 500% | T/C (%) (L1210 murine leukemia; dose 16.000 mg/kg): 636% | T/C (%) (L1210 murine leukemia; dose 32.000 mg/kg): 542%

COc1cccc2c1C(=O)c1c(O)c3c(c(O)c1C2=O)CC(O)(C(=O)COC(=O)CCCCCN)CC3OC1OC(C)C(O)C(O)C1F [Example 7, 7-0-(2,6-dideoxy-2 fluoro-α-L-talopyranosyl)adriamycinone 14-0-(6-aminohexanoate) HCl salt]
IC50 ([1]; L1210, 72 h): 0.0745 µg/mL | T/C (%) (L1210 murine leukemia; dose 0.125 mg/kg): 111% | T/C (%) (L1210 murine leukemia; dose 0.250 mg/kg): 122% | T/C (%) (L1210 murine leukemia; dose 0.500 mg/kg): 168% | T/C (%) (L1210 murine leukemia; dose 1.000 mg/kg): 242% | T/C (%) (L1210 murine leukemia; dose 2.000 mg/kg): 329% | T/C (%) (L1210 murine leukemia; dose 4.000 mg/kg): 348% | T/C (%) (L1210 murine leukemia; dose 8.000 mg/kg): 367% | T/C (%) (L1210 murine leukemia; dose 16.000 mg/kg): 441% | T/C (%) (L1210 murine leukemia; dose 32.000 mg/kg): 663%

COc1cccc2c1C(=O)c1c(O)c3c(c(O)c1C2=O)CC(O)(C(=O)COC(=O)C(C)N)CC3OC1OC(C)C(O)C(O)C1F [Example 9, 7-0-(2,6-dideoxy-2-fluoro-α-L-talopyranosyl)adriamycinone 14-0-L-alaninate HCl salt]
IC50 [1, 2]: 0.0143 µg/mL | T/C (%) (L1210 murine leukemia; dose 0.125 mg/kg): 171% | T/C (%) (L1210 murine leukemia; dose 0.250 mg/kg): 190% | T/C (%) (L1210 murine leukemia; dose 0.500 mg/kg): 244% | T/C (%) (L1210 murine leukemia; dose 1.000 mg/kg): 287% | T/C (%) (L1210 murine leukemia; dose 2.000 mg/kg): 356% | T/C (%) (L1210 murine leukemia; dose 4.000 mg/kg): 468% | T/C (%) (L1210 murine leukemia; dose 8.000 mg/kg): 488% | T/C (%) (L1210 murine leukemia; dose 16.000 mg/kg): 660% | T/C (%) (L1210 murine leukemia; dose 32.000 mg/kg): 727%

COc1cccc2c1C(=O)c1c(O)c3c(c(O)c1C2=O)CC(O)(C(=O)COC(=O)C(N)C(C)C)CC3OC1OC(C)C(O)C(O)C1F [Example 11, 7-0-(2,6-dideoxy-2-fluoro-α-L-talopyranosyl)adriamycinone 14-0-L-valinate HCl salt]
IC50 [1, 2]: 0.0155 µg/mL | T/C (%) (L1210 murine leukemia; dose 0.125 mg/kg): 150% | T/C (%) (L1210 murine leukemia; dose 0.250 mg/kg): 168% | T/C (%) (L1210 murine leukemia; dose 0.500 mg/kg): 226% | T/C (%) (L1210 murine leukemia; dose 1.000 mg/kg): 298% | T/C (%) (L1210 murine leukemia; dose 2.000 mg/kg): 492% | T/C (%) (L1210 murine leukemia; dose 4.000 mg/kg): 559% | T/C (%) (L1210 murine leukemia; dose 8.000 mg/kg): 586% | T/C (%) (L1210 murine leukemia; dose 16.000 mg/kg): 727% | T/C (%) (L1210 murine leukemia; dose 32.000 mg/kg): 252%

COc1cccc2c1C(=O)c1c(O)c3c(c(O)c1C2=O)CC(O)(C(=O)COC(=O)C1CCCN1)CC3OC1OC(C)C(O)C(O)C1F [Example 13, 7-0-(2,6-dideoxy-2-fluoro-α-L-talopyranosyl)adriamycinone 14-0-L-prolinate HCl salt]
IC50 [1, 2]: 0.0163 µg/mL | T/C (%) (L1210 murine leukemia; dose 0.125 mg/kg): 140% | T/C (%) (L1210 murine leukemia; dose 0.250 mg/kg): 159% | T/C (%) (L1210 murine leukemia; dose 0.500 mg/kg): 213% | T/C (%) (L1210 murine leukemia; dose 1.000 mg/kg): 313% | T/C (%) (L1210 murine leukemia; dose 2.000 mg/kg): 367% | T/C (%) (L1210 murine leukemia; dose 4.000 mg/kg): 283% | T/C (%) (L1210 murine leukemia; dose 8.000 mg/kg): 427% | T/C (%) (L1210 murine leukemia; dose 16.000 mg/kg): 635% | T/C (%) (L1210 murine leukemia; dose 32.000 mg/kg): 525%
